Broadly, the Ki is the equilibrium dissociation constant of an inhibitor or competing ligand from its target. Usually inhibition stands for the change of the read-out against control, counted positive when it falls.

Experiment [1] has as its target T1, β-secretase (BACE) (Homo sapiens, UniProt P56817).
T1 construct: purchased Panvera
The experiment is described as follows: in vitro BACE FS1 % Inhibition Assay (Example 13). The class given is biochemical. The note with it: FS1 substrate, pH 5; for inhibition at 0.3 µM: read-out: % Inhibition (Example 13) @ 0.3 μM; for inhibition at 1 µM: read-out: % Inhibition (Example 13) @ 1 μM; for inhibition at 3 µM: read-out: % Inhibition (Example 13) @ 3 μM. The protocol: (§1) The following assay buffers were prepared and used in this assay: (1) enzyme assay buffer (0.05 M sodium acetate, pH5, 0.1% PEG8000 (w/v)), (2) substrate assay buffer (0.05 M sodium acetate, pH5), and (3) compound vehicle (30% DMSO in 50 mM HEPES, pH 7.4).
The FS1-substrate stock solution was prepared in DMSO as a 10 mg/mL solution. The FS1-substrate working solution was prepared by diluting the 10 mg/mL stock solution with substrate assay buffer to a final concentration of 300 μg/mL. The α-secretase (BACE) working solution was prepared by diluting a 0.83 mg/mL BACE stock solution with enzyme assay buffer to a final concentration of 4 μg/mL.
Test compounds were dissolved in DMSO to 10 mM.
The screening procedure for this assay was as follows: 15 μL of BACE working solution was pipetted into each well of a 96-well plate. To each well was then pipetted 2 μL of test compound at the selected concentration. Test compound and BACE were then mixed with a pipettor and incubated for 20 min at room temperature. To each well was then added 10 µL of the FS1 substrate working solution. The plates were then incubated for 1 hour at room temperature.
The procedure for the blank (negative control) was as follows. 15 μL of assay buffer was pipetted into each well to be used as a blank control. To each well was then added 2 μL of vehicle and 10 μL of FS1-substrate working solution. The plates were then incubated for 1 hour at room temperature.
The procedure for the positive control was as follows: 15 μL of BACE working solution was pipetted into each well to be used as a positive control. To each well was then pipetted 2 μL of vehicle. Vehicle and BACE were then mixed with a pipettor and incubated for 20 min at room temperature. To each well was then added 10 μL of the FS1 substrate working solution. The plates were then incubated for 1 hour at room temperature.
For test compounds, % inhibition was determined at each concentration as follows: […]

Experiment [2] concerns the target T1, β-secretase (BACE). Kind of experiment: in vitro BACE Assay, Ki (Example 14). Type of experiment: biochemical. The protocol: as §1
The FS1-substrate stock solution was prepared in DMSO as a 10 mg/mL solution. The FS1-substrate working solution was prepared by diluting the 10 mg/mL stock solution with substrate assay buffer to a final concentration of 300 μg/mL. The β-secretase (BACE) working solution was prepared by diluting a 0.83 mg/mL BACE stock solution with enzyme assay buffer to a final concentration of 4 μg/mL.
Test compounds were dissolved in DMSO at 10 mM.
The procedure for this assay was as follows: 15 μL of BACE working solution was pipetted into each well of a 96-well plate. To each well was then pipetted 2 μL of test compound at the selected concentration. Test compound and BACE were then mixed with a pipettor and incubated for 20 min at room temperature. To each well was then added 10 μL of the FS1 substrate working solution.
The procedure for the positive control was as follows: 15 μL of BACE working solution was pipetted into each well to be used as a positive control. To each well was then pipetted 2 μL of vehicle. Vehicle and BACE were then mixed with a pipettor and incubated for 20 min at room temperature. To each well was then added 10 μL of the FS1 substrate working solution.
For test compounds, Ki inhibition was determined as follows: For each compound concentration and positive control, rate of cleavage of substrate (Vi, where i=compound concentration in μM) was determined as Δ Fluorescence/Δ time (min). Cleavage rates (Vi) were plotted as a function of inhibitor concentration in μM [I]. The Ki was then determined by fitting the following equation to the graph of [I] vs. Vi Y=aVmax/(50+24*(1+X/Ki)),

Read-outs that look alike come from different tables or passages of the source.

T1 sequence (P56817 46-501): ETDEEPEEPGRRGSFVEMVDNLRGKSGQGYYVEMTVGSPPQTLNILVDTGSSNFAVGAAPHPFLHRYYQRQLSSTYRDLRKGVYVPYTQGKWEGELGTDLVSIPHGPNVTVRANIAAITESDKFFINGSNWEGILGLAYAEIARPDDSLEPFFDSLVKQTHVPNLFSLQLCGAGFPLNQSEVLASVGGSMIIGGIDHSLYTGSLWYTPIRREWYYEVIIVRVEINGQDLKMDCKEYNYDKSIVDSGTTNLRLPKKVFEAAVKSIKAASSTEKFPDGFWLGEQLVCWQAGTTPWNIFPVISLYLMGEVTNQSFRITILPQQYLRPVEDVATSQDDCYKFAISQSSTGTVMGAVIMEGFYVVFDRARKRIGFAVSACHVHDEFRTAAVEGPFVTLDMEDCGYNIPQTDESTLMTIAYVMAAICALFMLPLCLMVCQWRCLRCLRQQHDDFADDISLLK

Regarding `NC1=Nc2ccc3cc2CN1[C@H](C1CCOCC1)CCC(=O)NCCc1cccc(c1)O3` [Compound 21], on β-secretase (BACE) [1] (0.3 μM compound), the “% Inhibition (Example 13) @ 0.3 μM” value worked out at 54%. The “% Inhibition (Example 13) @ 1 μM” value at β-secretase (BACE) [1] (1 μM compound) came out at 88%. Moreover, on β-secretase (BACE) [1] (3 μM compound), the “% Inhibition (Example 13) @ 3 μM” value is on record as 110%. In addition, the inhibition constant (Ki) on β-secretase (BACE) [2] (read-out: (Example 14) Ki, FS1 substrate 50 μM, Km 24 μM, pH 5) worked out at 0.1 µM.

On to `CCOC(=O)C1CCC(N2CCc3cccc(c3)Oc3ccc4c(c3)CN(C(N)=N4)C(C(C)C)CCC2=O)CC1` (stereo not drawn) [Compound 22], for which the inhibition at 0.3 µM on β-secretase (BACE) [1] (0.3 μM compound) amounted to 25%. At β-secretase (BACE) [1] (1 μM compound), the inhibition at 1 µM worked out at 48%. The inhibition at 3 µM on β-secretase (BACE) [1] (3 μM compound) is 83%. Besides, on β-secretase (BACE) [2], the Ki was found to be 0.75 µM.

With `CC(C)[C@@H]1CCC(=O)N([C@H]2CC[C@@H](C(=O)O)CC2)CCc2cccc(c2)Oc2ccc3c(c2)CN1C(N)=N3` [Compound 23], on β-secretase (BACE) [1] (0.3 μM compound), the inhibition at 0.3 µM was 106%. Moreover, the inhibition at 1 µM on β-secretase (BACE) [1] (1 μM compound) worked out at 108%. The inhibition at 3 µM at β-secretase (BACE) [1] (3 μM compound) came to 114%. The molecule also had an inhibition constant Ki at β-secretase (BACE) [2] of 0.013 µM.

As to `CC(C)[C@@H]1CCC(=O)N([C@H]2CC[C@H](C(=O)O)CC2)CCc2cccc(c2)Oc2ccc3c(c2)CN1C(N)=N3` [Compound 24], the inhibition at 0.3 µM on β-secretase (BACE) [1] (0.3 μM compound) turned out to be 27%. The inhibition at 1 µM at β-secretase (BACE) [1] (1 μM compound) turned out to be 43%. The inhibition at 3 µM on β-secretase (BACE) [1] (3 μM compound) came out at 77%. In addition, the affinity at β-secretase (BACE) [2], expressed as Ki, was 0.42 µM.

Consider `CC(C)[C@@H]1CCC(=O)N(CCCO)CCc2cccc(c2)Oc2ccc3c(c2)CN1C(N)=N3` [Compound 25], for which the inhibition at 0.3 µM on β-secretase (BACE) [1] (0.3 μM compound) amounted to 65%. Besides, on β-secretase (BACE) [1] (1 μM compound), the inhibition at 1 µM was found to be 99%. For the same molecule, on β-secretase (BACE) [1] (3 μM compound), the inhibition at 3 µM stood at 111%. In addition, the Ki on β-secretase (BACE) [2] amounted to 0.044 µM.

Consider `CC(C)[C@@H]1CCC(=O)N(C2CCCCC2)CCOc2cccc(c2)Oc2ccc3c(c2)CN1C(N)=N3` [Compound 27], for which the inhibition at 0.3 µM at β-secretase (BACE) [1] (0.3 μM compound) amounted to 106%. At β-secretase (BACE) [1] (1 μM compound), the inhibition at 1 µM stood at 117%. The inhibition at 3 µM on β-secretase (BACE) [1] (3 μM compound) was determined as 117%. This molecule came in with a Ki at β-secretase (BACE) [2] of 0.011 µM.

These data come from patent US7932261B2, “Macrocycle derivatives useful as inhibitors of β-secretase (BACE)” (Janssen Pharmaceutica NV, priority 2006, dated 2011).
